Earlier results, collected in article PMC9182199, “Borylated 2,3,4,5-Tetrachlorophthalimide and Their 2,3,4,5-Tetrachlorobenzamide Analogues: Synthesis, Their Glycosidase Inhibition and Anticancer Properties in View to Boron Neutron Capture Therapy” (Molecules, 2022).
pIC50: −log10 of the molar value.

Columns and labels:
sucrase = tested on: sucrase; parameters: method as in PMID 18254235; details: cited from earlier work
yeast α-glucosidase = biological target: T1, yeast α-glucosidase (Saccharomyces cerevisiae, UniProt P53341); parameters: method as in PMID 18254235; details: cited from earlier work
T1 construct: purchased Sigma
T1 sequence (P53341 whole entry): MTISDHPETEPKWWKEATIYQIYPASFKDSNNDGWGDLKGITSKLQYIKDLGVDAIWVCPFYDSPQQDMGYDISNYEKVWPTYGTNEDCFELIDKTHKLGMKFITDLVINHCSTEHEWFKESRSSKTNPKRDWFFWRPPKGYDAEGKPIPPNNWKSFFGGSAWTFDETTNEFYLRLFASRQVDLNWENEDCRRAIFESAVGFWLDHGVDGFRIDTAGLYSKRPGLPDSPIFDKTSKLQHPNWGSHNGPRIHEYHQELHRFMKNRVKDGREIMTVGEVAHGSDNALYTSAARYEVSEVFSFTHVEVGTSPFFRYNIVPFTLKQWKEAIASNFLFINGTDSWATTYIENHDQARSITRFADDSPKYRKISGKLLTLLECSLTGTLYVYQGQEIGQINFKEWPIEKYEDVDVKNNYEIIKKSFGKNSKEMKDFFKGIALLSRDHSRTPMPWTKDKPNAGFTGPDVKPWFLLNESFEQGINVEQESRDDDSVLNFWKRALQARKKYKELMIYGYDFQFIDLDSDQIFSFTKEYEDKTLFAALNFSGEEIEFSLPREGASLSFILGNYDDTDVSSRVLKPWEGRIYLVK

maltase = biological target: maltase; parameters: method as in PMID 18254235; details: cited from earlier work
human [1] = details: 5 min; cited from earlier work
human [2] = details: oral; cited from earlier work
[3] = cited from earlier work
rat = tested on: rat; parameters: method as in earlier work; details: oral; cited from earlier work

## O=C1c2ccccc2C(=O)N1c1ccc([N+](=O)[O-])cc1[N+](=O)[O-] [N-(2,4-dinitrophenyl)phthalimide]
sucrase
  inhibition of sucrase: no inhibition
Yeast α-glucosidase
  pIC50: 3.80
maltase
  pIC50: 4.29

## c1ccccc1 [benzene]
Human [1]
  LCLO (lethal concentration): 20,000 ppm
Human [2]
  LD50 (lethal dose): 125 mg/kg
[3]
  Immediately Dangerous to Life and Health concentration: 500 ppm
  Recommended Exposure Limit: 0.1 ppm

## OB(O)c1ccccc1 [phenylboronic acid]
rat
  LD50: 740 mg/kg
